Test results: PubChem BioAssay (NCI)
Where “and” joins values, the source holds several entries; their conditions need not be identical. Equal entries are not always repeated.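 Step 1: Grow cells in 96-well plates. Step 2: Expose to compound for 48 hours at 5 concentrations. Step 3: Interpolate endpoints linearly; if unreached, use highest concentration. Here, GI50 denotes the concentration required for 50% inhibition of growth. The concentration for full growth arrest is given as TGI.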

Experiments:
Test in all cases: NCI anticancer screen, dose series, 48 h
BT-549 breast = tested on: BT-549 breast
T-47D breast = tested on: T-47D breast
HS 578T breast = tested on: HS 578T breast
DLD-1 colon = tested on: DLD-1 colon
M19-MEL melanoma = tested on: M19-MEL melanoma
HOP-18 NSCLC = tested on: HOP-18 NSCLC
XF 498 CNS = tested on: XF 498 CNS
MDA-N = tested on: MDA-N

Compound: Cc1nn(-c2nc3ccccc3[nH]2)c2c1C(c1ccc3c(c1)OCO3)CC(=O)N2 (stereo not drawn)
- GI50 (BT-549 breast): 3.26 µM
- TGI (BT-549 breast): 14.2 µM
- GI50 (T-47D breast): 3.61 µM
- TGI (T-47D breast): > 39.6 µM
- GI50 (HS 578T breast): 2.93 µM
- TGI (HS 578T breast): 13.5 µM

Compound: C/C(=C\CC[C@]1(C)OC(C)(C)OC1CC/C(C)=C/CO[Si](c1ccccc1)(c1ccccc1)C(C)(C)C)CC/C=C/CO[Si](C)(C)C(C)(C)C (stereo partly drawn)
- TGI (DLD-1 colon): > 100 µM
- TGI (M19-MEL melanoma): > 100 µM

Compound: O=C(N/N=C\c1ccc(N(CCCl)CCCl)cc1Cl)c1cccnc1
- GI50 (BT-549 breast): 22.7 µM
- TGI (BT-549 breast): > 76 µM
- GI50 (T-47D breast): 2.8 µM
- TGI (T-47D breast): 20 µM
- GI50 (HS 578T breast): 31.7 µM
- TGI (HS 578T breast): > 94 µM

Compound: CSC1C(=O)c2ccccc2/C(=N/Nc2nc3ccccc3s2)C1C (stereo not drawn)
- GI50 (BT-549 breast): 8.52 µM
- TGI (BT-549 breast): 19.6 µM
- GI50 (T-47D breast): 8.65 µM
- TGI (T-47D breast): > 50 µM
- GI50 (HS 578T breast): 7.26 µM
- TGI (HS 578T breast): 27.9 µM

Compound: S=C(Nc1ccccc1)N(Cc1ccccc1)c1ccccc1
- TGI (BT-549 breast): 4.97 µM
- TGI (T-47D breast): > 100 µM
- TGI (HS 578T breast): > 100 µM

Compound: C[CH2][Sn]([CH2]C)([O]C(=O)c1cccc(F)c1)[O][Sn]([CH2]C)([CH2]C)[O]C(=O)c1cccc(F)c1
- GI50 (HOP-18 NSCLC): 18.5 µM
- TGI (HOP-18 NSCLC): 32.5 µM
- GI50 (DLD-1 colon): 12.5 µM
- TGI (DLD-1 colon): 26.1 µM
- GI50 (M19-MEL melanoma): 16.8 µM
- TGI (M19-MEL melanoma): 31.9 µM
- GI50 (XF 498 CNS): 16.2 µM
- TGI (XF 498 CNS): 29.8 µM

Compound: COc1ccc2c(c1)OC(N)=C(C#N)C2c1ccc(F)cc1 (stereo not drawn)
- GI50 (BT-549 breast): 1.63 µM
- TGI (BT-549 breast): 31.2 µM
- GI50 (T-47D breast): 3.78 µM
- TGI (T-47D breast): > 100 µM
- GI50 (HS 578T breast): 3.84 µM
- TGI (HS 578T breast): > 100 µM

Compound: O=C(CN1C(=O)c2ccccc2C1=O)C(O)CN1C(=O)c2ccccc2C1=O (stereo not drawn)
- TGI (BT-549 breast): > 100 µM
- TGI (T-47D breast): > 100 µM
- TGI (HS 578T breast): > 100 µM
- TGI (MDA-N): > 100 µM

Compound: O=C(N/C(=C\c1ccc(Oc2ccc(Cl)c(Cl)c2)cc1)c1nc2ccccc2[nH]1)c1ccccc1
- TGI (DLD-1 colon): 42.9 µM
- TGI (M19-MEL melanoma): 94 µM
- TGI (XF 498 CNS): 34.6 µM

Compound: Clc1nc(Cl)c(Cc2ccccc2)c(Cl)n1
- TGI (BT-549 breast): 8.52 µM
- TGI (T-47D breast): 42.4 µM
- TGI (HS 578T breast): 19.9 µM
- TGI (MDA-N): 12.5 µM

Compound: N#C[S-].[Au+].c1ccc(CN2[CH-]N(Cc3ccccc3)C(c3ccccc3)=C2c2ccccc2)cc1
- GI50 (BT-549 breast): 0.47 µM
- TGI (BT-549 breast): 1.88 µM
- GI50 (HS 578T breast): 0.744 µM
- TGI (HS 578T breast): 4.62 µM

Compound: C=C1CC[C@@H]2[C@](C)(COC(C)=O)[C@H](OC(C)=O)CC[C@@]2(C)[C@@H]1C/C=C1/C(=O)OC[C@H]1OC(C)=O
- GI50 (BT-549 breast): 2.29 µM
- TGI (BT-549 breast): 5.63 µM
- GI50 (T-47D breast): 2.86 µM
- TGI (T-47D breast): 13.8 µM
- GI50 (HS 578T breast): 12.3 µM
- TGI (HS 578T breast): 55.3 µM

Compound: CN(C)CCNC(=O)c1cc2c3ccccc3[nH]c2c2ncccc12
- GI50 (BT-549 breast): 6.36 µM
- TGI (BT-549 breast): 20.7 µM
- GI50 (T-47D breast): 18.4 µM
- TGI (T-47D breast): > 100 µM
- GI50 (HS 578T breast): 3.57 µM
- TGI (HS 578T breast): 28.1 µM

Compound: C=CCCCCCC(O)C(O)C/C=C\C/C=C\CC (stereo not drawn)
- TGI (HOP-18 NSCLC): > 18.8 µM
- TGI (DLD-1 colon): > 18.8 µM
- TGI (XF 498 CNS): > 18.8 µM

Compound: N#CC1=C(N)Oc2c(sc3c(F)cccc23)C1c1ccc(F)cc1 (stereo not drawn)
- GI50 (BT-549 breast): 0.604 µM
- TGI (BT-549 breast): 14.2 µM
- GI50 (T-47D breast): 0.61 µM
- TGI (T-47D breast): 26.9 µM
- GI50 (HS 578T breast): 0.414 µM
- TGI (HS 578T breast): 11.4 µM

Compound: O=C(/C=C/c1ccc(C(F)(F)F)cc1)c1ccc(Nc2nc(NCCO)nc(N3CCOCC3)n2)cc1
- GI50 (BT-549 breast): 1.56 µM
- TGI (BT-549 breast): 3.09 µM
- GI50 (T-47D breast): 2.28 µM
- TGI (T-47D breast): 7.77 µM
- GI50 (HS 578T breast): 2.61 µM

Compound: COC(=O)[C@@H](C)C[C@H](Cc1ccccc1)NC(=O)c1csc([C@@H](C[C@H](C(C)C)N(C)C(=O)C2(NC(=O)[C@H]3CCCCN3C)CC2)OC(C)=O)n1
- GI50 (BT-549 breast): 0.00549 µM and < 0.00333 µM
- TGI (BT-549 breast): < 0.00333 µM
- GI50 (T-47D breast): 0.00333 µM
- TGI (T-47D breast): > 33.3 µM
- GI50 (HS 578T breast): 0.0191 µM

Compound: C/C=C/C=C\C1OC(O)([C@H](CC)C(=O)NC/C=C/C=C(\C)[C@H](OC)C(C)C2OC(\C=C/C=C/C=C(\C)C(=O)c3c(O)ccn(C)c3=O)[C@H](O)[C@@H]2O)C(O)C(O)C1(C)C (stereo partly drawn)
- TGI (BT-549 breast): > 100 µM
- TGI (T-47D breast): > 100 µM
- TGI (HS 578T breast): > 100 µM
- TGI (MDA-N): > 100 µM

Compound: Cc1ccc(/C=C2\CCCC\C2=N\O)cc1
- TGI (HOP-18 NSCLC): > 100 µM
- TGI (DLD-1 colon): > 100 µM
- TGI (M19-MEL melanoma): > 100 µM
- TGI (XF 498 CNS): > 100 µM

Compound: COC(=O)c1cc2oc(/C=C3\SC(=S)N(NC(C)=O)C3=O)cc2n1Cc1ccccc1
- GI50 (BT-549 breast): 3.34 µM
- TGI (BT-549 breast): 28.7 µM
- GI50 (HS 578T breast): 6.61 µM
- TGI (HS 578T breast): > 50 µM

Compound: COC(=O)C(CC(=O)Nc1ccc(Cl)c(Cl)c1)C(=O)C(=O)NC1C2CC3CC(C2)CC1C3 (stereo not drawn)
- TGI (HOP-18 NSCLC): > 100 µM
- TGI (M19-MEL melanoma): > 100 µM

Compound: COc1ccc(/C=C/C(=O)c2cc3c(N)c(C(=O)Nc4ccccc4)sc3nc2C)cc1
- GI50 (BT-549 breast): 0.797 µM
- TGI (BT-549 breast): > 50 µM
- GI50 (T-47D breast): 0.33 µM
- TGI (T-47D breast): > 50 µM
- GI50 (HS 578T breast): 0.153 µM
- TGI (HS 578T breast): > 50 µM

Compound: COc1ccc2nc(C)cc(Nc3ccccc3O)c2c1
- GI50 (BT-549 breast): 37.1 µM
- TGI (BT-549 breast): > 100 µM
- GI50 (T-47D breast): 32.8 µM
- TGI (T-47D breast): 96.8 µM
- GI50 (HS 578T breast): 31.9 µM
- TGI (HS 578T breast): > 100 µM

Compound: COc1cc2cccc(NC(=O)c3cc(OC)c(OC)c(OC)c3Br)c2cc1OC
- TGI (HOP-18 NSCLC): 74.4 µM
- TGI (DLD-1 colon): > 100 µM
- TGI (M19-MEL melanoma): 32.5 µM
- TGI (XF 498 CNS): 7.37 µM

Compound: O=C1c2c(nc3ccccc3c2-c2ccccc2)CN1Nc1ccccc1
- TGI (DLD-1 colon): > 100 µM
- TGI (M19-MEL melanoma): > 100 µM
- TGI (XF 498 CNS): > 100 µM

Compound: CCOC1C=CCCO1 (stereo not drawn)
- TGI (T-47D breast): > 100 µM
- TGI (HS 578T breast): > 100 µM
- TGI (MDA-N): > 100 µM

Compound: COc1ccccc1/C=N/N=C(\N)NO
- TGI (HOP-18 NSCLC): > 100 µM
- TGI (DLD-1 colon): > 100 µM
- TGI (M19-MEL melanoma): > 100 µM

Compound: CC1=C(C(=O)Nc2ccc(F)c(Cl)c2)C(c2cccc(Oc3ccccc3)c2)NC(=O)N1 (stereo not drawn)
- GI50 (BT-549 breast): 15.3 µM
- TGI (BT-549 breast): 31.1 µM
- GI50 (T-47D breast): 15.7 µM
- TGI (T-47D breast): 34.6 µM
- GI50 (HS 578T breast): 12.2 µM
- TGI (HS 578T breast): 32.9 µM

Compound: Clc1ccc(SCCCCCCCCCCSc2ccc(Cl)cc2)cc1
- TGI (HOP-18 NSCLC): > 100 µM
- TGI (DLD-1 colon): > 100 µM
- TGI (M19-MEL melanoma): > 100 µM
- TGI (XF 498 CNS): > 100 µM

Compound: COc1cc([N+](=O)[O-])c(OC)cc1-c1nc2sc(Cl)cn2c1/C=N/NC(=N)N/N=C/c1c(-c2cc(OC)c([N+](=O)[O-])cc2OC)nc2sc(Cl)cn12
- GI50 (T-47D breast): 1.98 µM
- TGI (T-47D breast): 5.07 µM

Compound: O=C(NCP(=O)(O)O)c1cccnc1
- TGI (BT-549 breast): > 100 µM
- TGI (T-47D breast): > 100 µM
- TGI (MDA-N): > 100 µM

Compound: CN(C)c1ccc(O)c2c1C[C@H]1C[C@H]3[C@H](N(C)C)C(=O)C(C(N)=O)=C(O)[C@@]3(O)C(=O)C1=C2O
- GI50 (BT-549 breast): 4.14 µM
- TGI (BT-549 breast): 20.1 µM
- GI50 (T-47D breast): 5.29 µM
- TGI (T-47D breast): > 100 µM
- GI50 (HS 578T breast): 3.36 µM
- TGI (HS 578T breast): 34.2 µM
